Test results from the supplement of paper PMC10307832.

Assays:
Assay in all cases: relative viability (nuclei count vs DMSO), 5 days (fraction); higher = more cells survive
[1] = test system: NCI-H838
Procedure, shortened: (§1)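 One day after seeding in 1536-well plates, lung cancer cell lines were dosed by pin tool. Dosing was either single-drug or a fixed anchor-drug dose plus five library-drug doses (not always all listed) in √10 steps. After 5 days, nuclei were stained in one fix-and-stain step and counted on 4× images, and relative viability is the nuclei count of treated wells over that of vehicle wells, given as the median of duplicate plates.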

[2] = test system: PC-3 [JPC-3]
Procedure, shortened: as §1

[3] = test system: NCI-H650
Procedure, shortened: as §1

[4] = test system: EBC-1
Procedure, shortened: as §1

[5] = test system: RERF-LC-KJ
Procedure, shortened: as §1

[6] = test system: A549
Procedure, shortened: as §1

[7] = test system: NCI-H1651
Procedure, shortened: as §1

[8] = test system: NCI-H520
Procedure, shortened: as §1

[9] = test system: Calu-6
Procedure, shortened: as §1

[10] = test system: IA-LM
Procedure, shortened: as §1

[11] = test system: NCI-H1703
Procedure, shortened: as §1

[12] = test system: NCI-H1299
Procedure, shortened: as §1

[13] = test system: NCI-H1944
Procedure, shortened: as §1

SMILES: Cc1sc2c(c1C)C(c1ccc(Cl)cc1)=N[C@@H](CC(=O)OC(C)(C)C)c1nnc(C)n1-2 [JQ1] + C[C@@H](Oc1cc(-c2cnn(C3CCNCC3)c2)cnc1N)c1c(Cl)ccc(F)c1Cl [Crizotinib] (partner 1 µM)
- relative viability ([1]; first compound 0.04 µM): 0.814
- relative viability ([1]; first compound 0.1265 µM): 0.546
- relative viability ([1]; first compound 0.4 µM): 0.415
- relative viability ([1]; first compound 1.265 µM): 0.27
- relative viability ([1]; first compound 4 µM): 0.172
- relative viability ([2]; first compound 0.04 µM): 1.06
- relative viability ([2]; first compound 0.1265 µM): 1.03
- relative viability ([2]; first compound 0.4 µM): 0.96
- relative viability ([2]; first compound 1.265 µM): 0.851
- relative viability ([2]; first compound 4 µM): 0.512
- relative viability ([3]; first compound 0.04 µM): 0.7
- relative viability ([3]; first compound 0.1265 µM): 0.445
- relative viability ([3]; first compound 0.4 µM): 0.343
- relative viability ([3]; first compound 1.265 µM): 0.174
- relative viability ([3]; first compound 4 µM): 0.195
- relative viability ([4]; first compound 0.04 µM): 0.214
- relative viability ([4]; first compound 0.1265 µM): 0.187
- relative viability ([4]; first compound 0.4 µM): 0.154
- relative viability ([4]; first compound 1.265 µM): 0.105
- relative viability ([4]; first compound 4 µM): 0.13
- relative viability ([5]; first compound 0.04 µM): 0.783
- relative viability ([5]; first compound 0.1265 µM): 0.879
- relative viability ([5]; first compound 0.4 µM): 0.777
- relative viability ([5]; first compound 1.265 µM): 0.635
- relative viability ([5]; first compound 4 µM): 0.29
- relative viability ([6]; first compound 0.04 µM): 0.766
- relative viability ([6]; first compound 0.1265 µM): 0.521
- relative viability ([6]; first compound 0.4 µM): 0.558
- relative viability ([6]; first compound 1.265 µM): 0.233
- relative viability ([6]; first compound 4 µM): 0.125
- relative viability ([7]; first compound 0.04 µM): 0.795
- relative viability ([7]; first compound 0.1265 µM): 0.784
- relative viability ([7]; first compound 0.4 µM): 0.701
- relative viability ([7]; first compound 1.265 µM): 0.639
- relative viability ([7]; first compound 4 µM): 0.548
- relative viability ([8]; first compound 0.04 µM): 0.97
- relative viability ([8]; first compound 0.1265 µM): 0.997
- relative viability ([8]; first compound 0.4 µM): 0.578
- relative viability ([8]; first compound 1.265 µM): 0.368
- relative viability ([8]; first compound 4 µM): 0.166
- relative viability ([9]; first compound 0.04 µM): 0.737
- relative viability ([9]; first compound 0.1265 µM): 0.546
- relative viability ([9]; first compound 0.4 µM): 0.62
- relative viability ([9]; first compound 1.265 µM): 0.342
- relative viability ([9]; first compound 4 µM): 0.183
- relative viability ([10]; first compound 0.04 µM): 0.672
- relative viability ([10]; first compound 0.1265 µM): 0.3
- relative viability ([10]; first compound 0.4 µM): 0.147
- relative viability ([10]; first compound 1.265 µM): 0.101
- relative viability ([10]; first compound 4 µM): 0.108
- relative viability ([11]; first compound 0.04 µM): 0.611
- relative viability ([11]; first compound 0.1265 µM): 0.438
- relative viability ([11]; first compound 0.4 µM): 0.464
- relative viability ([11]; first compound 1.265 µM): 0.286
- relative viability ([11]; first compound 4 µM): 0.302
- relative viability ([12]; first compound 0.04 µM): 0.932
- relative viability ([12]; first compound 0.1265 µM): 0.768
- relative viability ([12]; first compound 0.4 µM): 0.707
- relative viability ([12]; first compound 1.265 µM): 0.352
- relative viability ([12]; first compound 4 µM): 0.279
- relative viability ([13]; first compound 0.04 µM): 1.02
- relative viability ([13]; first compound 0.1265 µM): 0.905
- relative viability ([13]; first compound 0.4 µM): 0.719
- relative viability ([13]; first compound 1.265 µM): 0.574
- relative viability ([13]; first compound 4 µM): 0.447

SMILES: Cc1sc2c(c1C)C(c1ccc(Cl)cc1)=N[C@@H](CC(=O)OC(C)(C)C)c1nnc(C)n1-2 [JQ1] + C[C@]1(O)C[C@@H](c2nc(-c3ccc4ccc(-c5ccccc5)nc4c3)c3c(N)nccn32)C1 [Linsitinib] (partner 1 µM)
- relative viability ([1]; first compound 0.04 µM): 0.954
- relative viability ([1]; first compound 0.1265 µM): 0.543
- relative viability ([1]; first compound 0.4 µM): 0.74
- relative viability ([1]; first compound 1.265 µM): 0.307
- relative viability ([1]; first compound 4 µM): 0.229
- relative viability ([2]; first compound 0.04 µM): 0.942
- relative viability ([2]; first compound 0.1265 µM): 0.998
- relative viability ([2]; first compound 0.4 µM): 1.06
- relative viability ([2]; first compound 1.265 µM): 0.79
- relative viability ([2]; first compound 4 µM): 0.666
- relative viability ([3]; first compound 0.04 µM): 0.913
- relative viability ([3]; first compound 0.1265 µM): 0.507
- relative viability ([3]; first compound 0.4 µM): 0.503
- relative viability ([3]; first compound 1.265 µM): 0.291
- relative viability ([3]; first compound 4 µM): 0.26
- relative viability ([4]; first compound 0.04 µM): 0.8
- relative viability ([4]; first compound 0.1265 µM): 0.523
- relative viability ([4]; first compound 0.4 µM): 0.332
- relative viability ([4]; first compound 1.265 µM): 0.112
- relative viability ([4]; first compound 4 µM): 0.112
- relative viability ([5]; first compound 0.04 µM): 0.865
- relative viability ([5]; first compound 0.1265 µM): 1.07
- relative viability ([5]; first compound 0.4 µM): 0.91
- relative viability ([5]; first compound 1.265 µM): 0.782
- relative viability ([5]; first compound 4 µM): 0.631
- relative viability ([6]; first compound 0.04 µM): 0.613
- relative viability ([6]; first compound 0.1265 µM): 0.534
- relative viability ([6]; first compound 0.4 µM): 0.561
- relative viability ([6]; first compound 1.265 µM): 0.314
- relative viability ([6]; first compound 4 µM): 0.226
- relative viability ([7]; first compound 0.04 µM): 0.776
- relative viability ([7]; first compound 0.1265 µM): 0.871
- relative viability ([7]; first compound 0.4 µM): 0.797
- relative viability ([7]; first compound 1.265 µM): 0.433
- relative viability ([7]; first compound 4 µM): 0.468
- relative viability ([8]; first compound 0.04 µM): 0.962
- relative viability ([8]; first compound 0.1265 µM): 1.26
- relative viability ([8]; first compound 0.4 µM): 0.821
- relative viability ([8]; first compound 1.265 µM): 0.435
- relative viability ([8]; first compound 4 µM): 0.287
- relative viability ([9]; first compound 0.04 µM): 0.931
- relative viability ([9]; first compound 0.1265 µM): 0.793
- relative viability ([9]; first compound 0.4 µM): 0.905
- relative viability ([9]; first compound 1.265 µM): 0.639
- relative viability ([9]; first compound 4 µM): 0.313
- relative viability ([10]; first compound 0.04 µM): 0.406
- relative viability ([10]; first compound 0.1265 µM): 0.098
- relative viability ([10]; first compound 0.4 µM): 0.153
- relative viability ([10]; first compound 1.265 µM): 0.106
- relative viability ([10]; first compound 4 µM): 0.0793
- relative viability ([11]; first compound 0.04 µM): 0.95
- relative viability ([11]; first compound 0.4 µM): 0.404
- relative viability ([11]; first compound 1.265 µM): 0.33
- relative viability ([11]; first compound 4 µM): 0.396
- relative viability ([12]; first compound 0.04 µM): 0.97
- relative viability ([12]; first compound 0.1265 µM): 0.781
- relative viability ([12]; first compound 0.4 µM): 0.883
- relative viability ([12]; first compound 1.265 µM): 0.36
- relative viability ([12]; first compound 4 µM): 0.238
- relative viability ([13]; first compound 0.04 µM): 1.15
- relative viability ([13]; first compound 0.1265 µM): 0.874
- relative viability ([13]; first compound 0.4 µM): 0.922
- relative viability ([13]; first compound 1.265 µM): 0.623
- relative viability ([13]; first compound 4 µM): 0.557
